The test system of test [1] is A2780 ovarian cells. Nature of the test: A2780 Ovarian Cell Proliferation Assay in Lipid Reduced Medium, without Palmitate. Type of test: cell-based. To be noted: Homo sapiens, A2780; lipid reduced medium, without palmitate, 96 h, MTT; read-out: Proliferation A2780 w/o Palmitate pIC50 (converted). A digest of the protocol: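 A2780 cells were seeded in 10% FCS medium and switched next day to 10% lipid-reduced serum without palmitate. Compounds at 0.01–30 μM were added with 0.2% DMSO, 0.2% fatty-acid-free BSA and 0.25% ethanol final. After 96 h, MTT absorbance at 544 nm was normalized to plate controls, and IC50/pIC50 came from a 4-parameter logistic fit.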

The target of test [2] is T1, FASN Keto-reductase Domain (Homo sapiens, UniProt P49327).
T1 construct: 10 μL hFASN enzyme (full length, 300 ng, purified in house) and 360 μM NADPH; made in house
T1 sequence (P49327 whole entry, the tested form may be a part): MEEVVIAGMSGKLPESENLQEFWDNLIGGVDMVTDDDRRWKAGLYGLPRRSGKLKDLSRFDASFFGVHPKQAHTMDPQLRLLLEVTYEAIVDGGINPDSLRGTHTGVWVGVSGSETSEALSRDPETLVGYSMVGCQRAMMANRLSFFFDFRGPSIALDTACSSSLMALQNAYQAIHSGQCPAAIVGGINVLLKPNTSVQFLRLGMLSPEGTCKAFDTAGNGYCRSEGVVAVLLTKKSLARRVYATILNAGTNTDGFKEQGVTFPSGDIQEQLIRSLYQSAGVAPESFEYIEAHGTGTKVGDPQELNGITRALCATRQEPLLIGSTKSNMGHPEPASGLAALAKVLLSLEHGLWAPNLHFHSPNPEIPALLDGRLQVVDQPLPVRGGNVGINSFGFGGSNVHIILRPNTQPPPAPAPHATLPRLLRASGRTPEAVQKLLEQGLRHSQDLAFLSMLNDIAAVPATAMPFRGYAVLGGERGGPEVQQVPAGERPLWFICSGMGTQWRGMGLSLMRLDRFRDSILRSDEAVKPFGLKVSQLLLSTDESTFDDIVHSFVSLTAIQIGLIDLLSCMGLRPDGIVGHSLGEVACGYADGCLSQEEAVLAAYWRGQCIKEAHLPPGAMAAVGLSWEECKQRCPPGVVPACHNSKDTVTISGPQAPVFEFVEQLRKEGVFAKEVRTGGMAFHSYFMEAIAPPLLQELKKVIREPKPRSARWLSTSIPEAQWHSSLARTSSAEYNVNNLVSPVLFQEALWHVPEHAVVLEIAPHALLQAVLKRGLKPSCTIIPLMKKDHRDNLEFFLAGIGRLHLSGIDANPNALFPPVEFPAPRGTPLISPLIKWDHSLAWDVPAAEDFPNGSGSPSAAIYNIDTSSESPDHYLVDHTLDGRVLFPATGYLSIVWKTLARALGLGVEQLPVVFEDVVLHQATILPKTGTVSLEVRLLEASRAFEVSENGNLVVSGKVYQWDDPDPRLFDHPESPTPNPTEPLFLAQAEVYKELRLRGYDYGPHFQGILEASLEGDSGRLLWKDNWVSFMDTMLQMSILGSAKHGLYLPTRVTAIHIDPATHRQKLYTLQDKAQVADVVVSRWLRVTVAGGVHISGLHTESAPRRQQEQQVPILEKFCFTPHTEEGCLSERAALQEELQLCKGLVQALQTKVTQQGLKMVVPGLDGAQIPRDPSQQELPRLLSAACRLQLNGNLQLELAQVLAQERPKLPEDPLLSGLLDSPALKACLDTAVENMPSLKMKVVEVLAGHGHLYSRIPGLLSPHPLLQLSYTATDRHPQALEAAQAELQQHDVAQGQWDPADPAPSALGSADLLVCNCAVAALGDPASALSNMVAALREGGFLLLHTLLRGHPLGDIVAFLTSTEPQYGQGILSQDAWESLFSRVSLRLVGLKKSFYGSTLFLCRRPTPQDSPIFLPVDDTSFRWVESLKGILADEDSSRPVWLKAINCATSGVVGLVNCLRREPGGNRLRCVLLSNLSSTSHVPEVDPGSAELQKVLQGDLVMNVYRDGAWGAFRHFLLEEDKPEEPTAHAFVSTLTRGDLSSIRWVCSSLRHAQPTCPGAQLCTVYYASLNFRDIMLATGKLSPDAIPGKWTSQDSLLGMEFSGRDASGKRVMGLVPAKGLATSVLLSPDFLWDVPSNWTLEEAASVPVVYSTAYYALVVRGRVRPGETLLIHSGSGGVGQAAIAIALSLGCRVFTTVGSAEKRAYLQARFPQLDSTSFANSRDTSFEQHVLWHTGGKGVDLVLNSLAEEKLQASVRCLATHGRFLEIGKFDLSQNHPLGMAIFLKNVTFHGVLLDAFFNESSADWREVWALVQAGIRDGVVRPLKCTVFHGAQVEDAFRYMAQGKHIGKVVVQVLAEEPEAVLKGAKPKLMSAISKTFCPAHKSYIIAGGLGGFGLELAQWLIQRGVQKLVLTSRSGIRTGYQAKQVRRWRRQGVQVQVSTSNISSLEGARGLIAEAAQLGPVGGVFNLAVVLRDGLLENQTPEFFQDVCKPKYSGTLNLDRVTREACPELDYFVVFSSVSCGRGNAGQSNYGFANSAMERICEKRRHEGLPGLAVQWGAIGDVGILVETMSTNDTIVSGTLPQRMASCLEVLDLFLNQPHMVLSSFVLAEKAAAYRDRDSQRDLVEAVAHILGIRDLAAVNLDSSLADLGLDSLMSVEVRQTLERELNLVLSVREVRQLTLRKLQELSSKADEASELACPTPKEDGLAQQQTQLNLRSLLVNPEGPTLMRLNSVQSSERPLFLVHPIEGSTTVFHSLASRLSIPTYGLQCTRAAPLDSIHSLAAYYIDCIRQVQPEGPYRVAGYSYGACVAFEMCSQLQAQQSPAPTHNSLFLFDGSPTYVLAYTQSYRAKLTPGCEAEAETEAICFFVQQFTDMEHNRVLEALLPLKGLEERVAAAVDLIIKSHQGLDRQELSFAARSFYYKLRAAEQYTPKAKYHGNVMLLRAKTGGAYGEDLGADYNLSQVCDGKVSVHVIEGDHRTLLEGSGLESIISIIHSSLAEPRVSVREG
As to the kind of experiment: Fatty Acid Synthase Keto-Reductase Domain (FASN KR) Inhibition. The class given is biochemical. The settings on record: mean where tested more than once; read-out: FASN K-R Domain pIC50 (converted). A digest of the protocol:
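Keto-reductase activity followed as NADPH consumption (A340 drop between 0 and 20 min, room temperature) using in-house full-length hFASN, 360 μM NADPH and ethyl acetoacetate substrate (180 mM stock), pH 7.5 phosphate buffer.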

Test [3] deals with T2, hFASN enzyme (full length) (Homo sapiens, UniProt P49327).
T2 construct: 10 μL hFASN enzyme (full length, 300 ng, purified in house); made in house
T2 sequence (P49327 whole entry): as the sequence (P49327 whole entry, the tested form may be a part) above
As to the kind of experiment: Fatty Acid Synthase (FASN) Inhibition Scintillation Proximity Assay. Type of test: biochemical. To be noted: for IC50: mean where tested more than once, ~ = standard error of pIC50 larger than 0.5; for inhibition at 10 µM: read-out: FASN % Effect @1E−05M. A digest of the protocol:
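Eight compound concentrations (0.01–30 μM) tested in pH 7.5 phosphate buffer with DTT; human full-length enzyme converted [3H]-acetyl-CoA plus malonyl-CoA, with NADPH, over 60 min at room temperature. Hydrophobic [3H]-palmitate detected by bead proximity scintillation imaging; control-normalised data fitted for IC50/pIC50.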
(In a scintillation proximity assay essentially only radioactivity close to the scintillant gives light.)

The test system of test [4] is A2780 ovarian cells. As to the kind of experiment: A2780 Ovarian Cell Proliferation Assay in Lipid Reduced Medium, with Palmitate (control). The settings on record: Homo sapiens, A2780; lipid reduced medium, 25 μM palmitate, 96 h, MTT; read-out: Proliferation A2780 with Palmitate pIC50 (converted). The class given is cell-based. In short, it runs like this:
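Read-out was MTT absorbance at 544 nm after 96 h at 37 °C. Cells grown overnight in RPMI1640/10% FCS were moved to 10% lipid-reduced serum with compound plus palmitate (final 25 μM, 0.2% fatty-acid-free BSA, 0.2% DMSO). IC50 came from least-squares curve fitting, expressed as −log(IC50).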

Regarding `CC(C)Nc1ccc(C(=O)Nc2cc(C(=O)N3CCC(c4ccc(-c5cnn(C)c5)cc4)CC3)ccc2Cl)cn1` [Compound 69, N-(2-chloro-5-(4-(4-(1-methyl-1H-pyrazol-4-yl)phenyl)piperidine-1-carbonyl)phenyl)-6-(isopropylamino)nicotinamide], the IC50 was 75.9 nM with A2780 ovarian cells [1], 41.7 nM in test [2], 28.8 nM in test [3] and 7590 nM in the test on A2780 ovarian cells [4]. The inhibition at 10 µM in test [3] is 98%.
The corresponding values for `Cc1ccc(C(=O)N2CCC(c3ccc(-c4cnn(C)c4)cc3)CC2)cc1NC(=O)C1CCN(CC(C)C)C1` (stereo not shown) [Compound 188, 1-isobutyl-N-(2-methyl-5-(4-(4-(1-methyl-1H-pyrazol-4-yl)phenyl)piperidine-1-carbonyl)phenyl)pyrrolidine-3-carboxamide] are 105 nM, 170 nM, 61.7 nM, above 10000 nM and 104%.
The corresponding values for `CCc1ccc(C(=O)N2CCC(c3ccc(-c4cnn(C)c4)cc3)CC2)cc1NC(=O)c1ccc(Cl)nc1` [Compound #255, 6-chloro-N-(2-ethyl-5-(4-(4-(1-methyl-1H-pyrazol-4-yl)phenyl)piperidine-1-carbonyl)phenyl)nicotinamide] are 39.8 nM, 72.4 nM, 24 nM, above 10000 nM and 113%.
With `Cc1ccc(C(=O)N2CCC(c3ccc(-c4cnn(C)c4)nc3)CC2)cc1NC(=O)c1ccc(Cl)nc1` [Compound 270, 6-chloro-N-(2-methyl-5-(4-(6-(1-methyl-1H-pyrazol-4-yl)pyridin-3-yl)piperidine-1-carbonyl)phenyl)nicotinamide], the IC50 in the test on A2780 ovarian cells [1] was 1480 nM; in test [2], 2750 nM; in test [3], 589 nM; in the test on A2780 ovarian cells [4] it was above 10000 nM. The inhibition at 10 µM in test [3] was determined as 93%.
The corresponding values for `Cc1ccc(C(=O)N2CCC(c3ccc(-c4ccccc4F)cc3)CC2)cc1NC(=O)c1ccc(NC(C)C)nc1` [Compound 224, N-(5-(4-(2′-fluoro-[1,1′-biphenyl]-4-yl)piperidine-1-carbonyl)-2-methylphenyl)-6-(isopropylamino)nicotinamide] are 372 nM, 282 nM, 170 nM, 5750 nM and 92%.
As for `Cc1ccc(C(=O)N2CCC(c3ccc(-c4cnn(C)c4)cc3)CC2)cc1NC(=O)c1sccc1Cl` [Compound 99, 3-chloro-N-(2-methyl-5-(4-(4-(1-methyl-1H-pyrazol-4-yl)phenyl)piperidine-1-carbonyl)phenyl)thiophene-2-carboxamide], the IC50 was 389 nM in the test on A2780 ovarian cells [1], 295 nM in test [2], 107 nM in test [3] and 6310 nM with A2780 ovarian cells [4]. The inhibition at 10 µM in test [3] worked out at 92%.
In the same order, the values of `Cc1ccc(C(=O)N2CCC(c3ccc(-c4cccs4)cc3)CC2)cc1NC(=O)c1ccc(NC(C)C)nc1` [Compound 236, 6-(isopropylamino)-N-(2-methyl-5-(4-(4-(thiophen-2-yl)phenyl)piperidine-1-carbonyl)phenyl)nicotinamide] are 603 nM, 355 nM, around 309 nM, 1950 nM and 74%.
The corresponding values for `COc1cc(Cl)cc(C(=O)Nc2cc(C(=O)N3CCC(c4ccc(-c5cnn(C)c5)cc4)CC3)ccc2C)c1` [Compound 128, 3-chloro-5-methoxy-N-(2-methyl-5-(4-(4-(1-methyl-1H-pyrazol-4-yl)phenyl)piperidine-1-carbonyl)phenyl)benzamide] are around 417 nM, 288 nM, 257 nM, 6170 nM and 84%.
The corresponding values for `Cc1ccc(C(=O)N2CCC(c3ccc(-c4ccnn4C)cc3)CC2)cc1NC(=O)c1ccc(NC(C)C)nc1` [Compound 44, 6-(Isopropylamino)-N-(2-methyl-5-(4-(4-(1-methyl-1H-pyrazol-5-yl)phenyl)piperidine-1-carbonyl)phenyl)nicotinamide] are 155 nM, 89.1 nM, 61.7 nM, above 10000 nM and 102%.
On to `Cc1ccc(C(=O)N2CCC(c3ccc(-c4cnn(C)c4)cc3)CC2)cc1NC(=O)c1cccs1` [Compound 130, N-(2-methyl-5-(4-(4-(1-methyl-1H-pyrazol-4-yl)phenyl)piperidine-1-carbonyl)phenyl)thiophene-2-carboxamide], for which the IC50 in the test with A2780 ovarian cells [1] was around 123 nM; in test [2], 126 nM; in test [3] it was 47.9 nM; in the test on A2780 ovarian cells [4], above 10000 nM. In addition, the inhibition at 10 µM in test [3] stood at 108%.
The corresponding values for `COc1ccccc1-c1ccc(C2CCN(C(=O)c3ccc(C)c(NC(=O)c4ccc(NC(C)C)nc4)c3)CC2)cc1` [Compound 200, 6-(isopropylamino)-N-(5-(4-(2′-methoxy-[1,1′-biphenyl]-4-yl)piperidine-1-carbonyl)-2-methylphenyl)nicotinamide] are 708 nM, 646 nM, 646 nM, 4570 nM and 86%.
The corresponding values for `Cc1ccc(C(=O)N2CCC(c3ccc(-c4cnn(C)c4)cc3)CC2)cc1NC(=O)[C@@H]1CCCN1C` [Compound 238, (S)-1-methyl-N-(2-methyl-5-(4-(4-(1-methyl-1H-pyrazol-4-yl)phenyl)piperidine-1-carbonyl)phenyl)pyrrolidine-2-carboxamide] are 741 nM, 1020 nM, 479 nM, above 10000 nM and 100%.
In the same order, the values of `Cc1ccc(C(=O)N2CCC(c3ccc(-c4cnn(C)c4)cc3)CC2)cc1NC(=O)c1cccc(Cl)c1` [Compound 95, 3-chloro-N-(2-methyl-5-(4-(4-(1-methyl-1H-pyrazol-4-yl)phenyl)piperidine-1-carbonyl)phenyl)benzamide] are 263 nM, 151 nM, 26.3 nM, 3470 nM and 105%.
As to `Cc1ccc(C(=O)N2CCC(c3ccc(-c4cnn(C)c4)cc3)CC2)cc1NC(=O)c1cnc(N(C)C(C)C)nc1` [Compound 144, 2-(isopropyl(methyl)amino)-N-(2-methyl-5-(4-(4-(1-methyl-1H-pyrazol-4-yl)phenyl)piperidine-1-carbonyl)phenyl)pyrimidine-5-carboxamide], the IC50 in the test with A2780 ovarian cells [1] is around 12.3 nM; in test [2], 35.5 nM; in test [3], 24 nM; in the test on A2780 ovarian cells [4] it was 7760 nM. Further, the inhibition at 10 µM in test [3] worked out at 106%.
In the same order, the values of `CCCCC(C)N1CCC(C(=O)Nc2cc(C(=O)N3CCC(c4ccc(-c5cnn(C)c5)cc4)CC3)ccc2C)CC1` (stereo not shown) [Compound 175, 1-(hexan-2-yl)-N-(2-methyl-5-(4-(4-(1-methyl-1H-pyrazol-4-yl)phenyl)piperidine-1-carbonyl)phenyl)piperidine-4-carboxamide] are 38.9 nM, 77.6 nM, 49 nM, around 10000 nM and 108%.
Regarding `Cc1ccc(C(=O)N2CCC(c3ccc(-c4ccco4)cc3)CC2)cc1NC(=O)c1ccc(NC(C)C)nc1` [Compound 252, N-(5-(4-(4-(furan-2-yl)phenyl)piperidine-1-carbonyl)-2-methylphenyl)-6-(isopropylamino)nicotinamide], the IC50 in the test with A2780 ovarian cells [1] was 347 nM; in test [2], 437 nM; in test [3], 166 nM; with A2780 ovarian cells [4] it was 1450 nM. Moreover, the inhibition at 10 µM in test [3] amounted to 106%.
The corresponding values for `Cc1ccc(C(=O)N2CC(c3ccc(-c4cnn(C)c4)cc3)C2)cc1NC(=O)C1CCCCC1` [Compound 125, N-(2-methyl-5-(3-(4-(1-methyl-1H-pyrazol-4-yl)phenyl)azetidine-1-carbonyl)phenyl)cyclohexanecarboxamide] are 132 nM, 79.4 nM, 44.7 nM, 4790 nM and 104%.
